# Results as given in patent publication US6573063B2, “Methods and systems for assessing biological materials using optical and spectroscopic detection techniques” (Cytoscan Sciences, LLC, priority 1995, dated 2003).
# Assays:
# hippocampal slices = experiment: Spontaneous interictal-like bursts in hippocampal slices after additions to the bathing medium; assay type: cell-based, rat; conditions: 4 slices
# Experimental: (§1) Sprague-Dawley rats (male and female; 25 to 35 days old) were prepared as described in Aghajanian, A. K. and Rasmussen, K., Synapse 31:331, 1989; and Buckmaster, P. S., Strowbridge, B. W., Schwartzdroin, P. A., J. Neurophysiol. 70:1281, 1993. In most hippocampal slice experiments, simultaneous extracellular field electrode recordings were obtained from CA1 and CA3 areas. For stimulation-evoked afterdischarge (13 slices, 8 animals), the concentration of Mg^2+ in the bathing medium was reduced to 0.9 mM. A bipolar tungsten stimulating electrode was placed on the Schaffer collaterals to evoke synaptically driven field responses in CA1; stimuli consisted to 100 to 300-μs-duration pulses at an intensity of four times population-spike threshold. After discharges were evoked by a 2-s train of such stimuli delivered at 60 Hz. […] In all treatments, perfusion with furosemide-containing medium was begun after a consistent level of bursting had been established.
# [1] = system: brain tumor and normal tissue; experiment: Optical imaging of brain tumor through the intact cranium after intravenous dye injection
# [2] = system: hippocampal tissue slice (CA1, Schaffer collateral stimulation); experiment: Stimulation-evoked afterdischarge in acute hippocampal slice: extracellular field recording and imaging of intrinsic optical signals; assay type: cell-based, rat
# Experimental: as §1
# For imaging of intrinsic optical signals, the tissue was illuminated with a beam of white light (tungsten filament light and lens system; Dedotec USA, Lodi, N.J.) directed through the microscope condenser. The light was controlled and regulated (power supply: Lambda Electronics, Melville, N.Y.) to minimize fluctuations and filtered (695 nm long-pass) so that the slice was transilluminated with long wavelengths (red). Image frames were acquired with a charge-coupled device camera (Dage-MTI) at 30 Hz and were digitized at 8 bits with a spatial resolution of 512 by 480 pixels by means of an Imaging Technology Series 151 imaging system; gains and offsets of the camera-control box and the analog-to-digital board were adjusted to optimize the sensitivity of the system. Imaging hardware was controlled by a 486-PC-compatible computer running software written by D. Hochman and developed with commercially available software tools (Microsoft's C/C++ Compiler and Imaging Technology's ITEX library). To increase signal-to-noise ratio, an averaged image was composed from 16 individual image-frames, integrated over 0.5 s and averaged together. An experimental series typically involved the continuous acquisition of a series of averaged images over a several minute time period; at least 10 of these averaged images were acquired as control images before stimulation. Pseudocolored images were calculated by subtracting the first control image from subsequently acquired images and assigned a color lookup table to the pixel values. For these images, usually a linear low-pass filter was used to remove high-frequency noise and a linear-histogram stretch was used to map the pixel values over the dynamic range of the system. All operations on these images were linear so that quantitative information was preserved.
# [3] = 20 minutes of perfusion with medium containing 2.5 mM furosemide
# [4] = following treatment with furosemide (FIG. 3E)
compound,measurement,setting,value
CN1CCc2cc3c(cc2[C@H]1[C@@H]1OC(=O)c2c1ccc1c2OCO1)OCO3 [bicuculine],"spontaneous interictal-like bursts, average","hippocampal slices; 50 to 100 bicuculine in bathing medium, 3 animals",14 bursts/min
CC1(C)C(/C=C/C=C/C=C/C=C2\N(CCCCS(=O)(=O)O)c3ccc4ccccc4c3C2(C)C)=[N+](CCCCS(=O)(=O)[O-])c2ccc3ccccc3c21 [indocyanine green],dye distribution in normal and tumor tissue,[1]; five seconds after dye injection,profuse through both normal and tumor tissue
same,dye in normal tissue,[1]; one minute after dye injection,cleared the dye
same,dye in tumor region,[1]; one minute after dye injection,still retained
Nc1ccncc1 [4-AP],"spontaneous interictal-like bursts, average","hippocampal slices; 200 to 300 μM 4-AP in bathing medium, 2 animals",33 bursts/min
NS(=O)(=O)c1cc(C(=O)O)c(NCc2ccco2)cc1Cl [furosemide],field response to the test pulse,[2]; [3],hyperexcitable field response (multiple population spikes)
same,stimulation-evoked optical changes,[2]; [3],blocked
same,electrical afterdischarge activity,"[2]; 20 minutes of perfusion with medium containing 2.5 mM furosemide, 2 s stimulation at 60 Hz",blocked
same,response pattern after washout,[2]; following 45 minutes of perfusion with normal bathing medium,restoration of the initial response pattern
same,epileptiform activity during electrical stimulation,[2]; [4],blocks
same,intrinsic optical signal during electrical stimulation,[2]; [4],blocks
